Experimental data from patent publication US20060095982A1 (priority 2002, published 2006).
Marks after values point to notes of the source that are not given here.

Legend:
Chlorella = experiment: Preliminary heavy metal tolerance of wild-type Chlorella; settings: preliminary studies
[1] = system: merAB seedlings (pLDR-MerAB and pLDR-MerAB-3′UTR clones); settings: 14 days
[2] = system: leaf disks of wild type tobacco; settings: 10 μM PMA
[3] = system: wild type tobacco plants (Petit Havana); settings: 14 days
WT tobacco plants [4] = experiment: Speciation of Hg by X-ray absorption spectroscopy, WT
wild type tobacco plants = settings: increase in PMA from 0 to 400 μM in soil, 14 d
WT tobacco plants [5] = experiment: Plant growth and tolerance on Hg-amended soil (dry weight, root length), WT
[6] = system: leaf disks of transgenic tobacco lines; settings: 10 μM PMA
[7] = system: transgenic tobacco lines 5A (pLDR-MerAB) and 9 (pLDR-MerAB-3′UTR)
[8] = system: chloroplast engineered pLDR-merAB and pLDR-merAB 3′UTR tobacco plants; experiment: Plant growth and tolerance on Hg-amended soil (dry weight, root length), transgenic lines
[9] = system: Untransformed E. coli cells (XL1-blue); experiment: Mercury resistance bioassay in bacteria, untransformed control; settings: 25 μM HgCl2
Salvia natans = settings: 5 μg/ml HgCl2; cited from earlier work
[10] = system: transgenic tobacco lines 5A (pLDR-MerAB) and 9 (pLDR-MerAB-3′UTR); experiment: Hg accumulation in shoots and roots (CVAAS), transgenic lines
[11] = system: E. coli cells containing pLDR-MerAB and pLDR-MerAB-3′UTR; experiment: Mercury resistance bioassay in bacteria, transformed clones; settings: 24 hours at 37° C.
[12] = system: WT tobacco plant (Petit Havana); experiment: Hg accumulation in shoots and roots (CVAAS), WT
[13] = system: mer-AB transgenic tobacco shoots and roots; experiment: Speciation of Hg by X-ray absorption spectroscopy, transgenic plants; settings: 100 μM for 15 d
Bacopa monnieri = settings: 5 μg/ml HgCl2; cited from earlier work

Compound: O=S(=O)([O-])[O-].[Cd+2] [cadmium sulfate]
- level tolerated by Chlorella (Chlorella): at least 200 μM

Compound: CC(=O)[O-].[Hg+][c]1ccccc1 [PMA, phenylmercuric acetate]
- survival of merAB seedlings ([1]; 200 μM PMA in soil): survived
- PMA concentration at which seedlings grew well ([1]; soil, both transgenic clones): up to 100 μM
- chlorophyll content of leaf disks [2]: reduced
- survival of wild type plants ([3]; 50 μM PMA in soil): barely survived
- effect on wild type plants ([3]; 100 and 200 μM PMA in soil): lethal
- form of mercury accumulated by WT plants (XAS edge-fitting) (WT tobacco plants [4]): entirely in the form of the mercury supplied
- total dry weight of wild type plants (wild type tobacco plants): decreased progressively
- average reduction of root length (WT tobacco plants [5]; WT, concentration increased from 0 μM to 300 μM): 6 cm
- dry weights of WT shoots and roots (WT tobacco plants [5]; concentration increased from 0 to 300 μM in soil, 15 days): decreased progressively
- chlorophyll content of leaf disks [6]: markedly increased
- concentration tolerated when grown in soil ([7]; chloroplast transformed lines): up to 400 μM
- total dry weight of transgenic plants ([7]; increase in PMA until PMA reached 400 μM, soil, 14 d): no decrease in total dry weight
- average reduction of root length ([8]; both transgenic lines, concentration increased from 0 μM to 300 μM): 4 cm
- dry weights of transgenic lines relative to WT ([8]; under PMA treatment): 2 fold

Compound: [Cl][Hg][Cl] [HgCl2, mercuric chloride]
- growth of untransformed cells [9]: unable to grow
- form of mercury accumulated by WT plants (XAS edge-fitting) (WT tobacco plants [4]): entirely in the form of the mercury supplied
- reduction of chlorophyll content (Salvia natans): 26%
- mercury accumulated in shoots of transgenic plants relative to WT ([10]; 100 μM): 3 times
- mercury accumulated in shoots of transgenic plants relative to WT ([10]; 200 μM): 9 times
- Hg accumulation, Root, 5A ([10]; soil amended with 100 μM): 115.1
- Hg accumulation, Root, 9 ([10]; soil amended with 100 μM): 114.8
- Hg accumulation, Shoot, 5A ([10]; soil amended with 100 μM): 7.42
- Hg accumulation, Shoot, 9 ([10]; soil amended with 100 μM): 6.27
- Hg accumulation, Root, 5A ([10]; soil amended with 200 μM): 215.5
- Hg accumulation, Root, 9 ([10]; soil amended with 200 μM): 149.5
- Hg accumulation, Shoot, 5A ([10]; soil amended with 200 μM): 6.4**
- Hg accumulation, Shoot, 9 ([10]; soil amended with 200 μM): 4.5*
- Hg accumulation, Root, 5A ([10]; soil amended with 300 μM): 333.8*
- Hg accumulation, Root, 9 ([10]; soil amended with 300 μM): 377.4
- Hg accumulation, Shoot, 5A ([10]; soil amended with 300 μM): 0.6*
- Hg accumulation, Shoot, 9 ([10]; soil amended with 300 μM): 0.7*
- effect on root lengths of WT (WT tobacco plants [5]; concentration in soil from 0 to 300 μM): not significantly affected
- growth in liquid broth ([11]; 25 and 50 μM HgCl2, LB broth): able to grow
- concentrations of HgCl2 in which cells were able to grow ([11]; solid agar plates, LB): up to 100 μM
- Hg accumulation, Root, WT ([12]; soil amended with 100 μM): 97.04
- Hg accumulation, Shoot, WT ([12]; soil amended with 100 μM): 4.74
- Hg accumulation, Root, WT ([12]; soil amended with 200 μM): 143.8
- Hg accumulation, Shoot, WT ([12]; soil amended with 200 μM): 0.57
- Hg accumulation, Root, WT ([12]; soil amended with 300 μM): 120.1
- Hg accumulation, Shoot, WT ([12]; soil amended with 300 μM): 0.23
- share of accumulated mercury in inorganic Hg-like form (XAS curve fitting) [13]: 77%
- share of accumulated mercury in organic Hg-like form (XAS curve fitting) [13]: 33%
- reduction of chlorophyll content (Bacopa monnieri): 35%
- difference between dry weights of WT and transgenic lines ([8]; concentration from 0 to 300 μM in soil): no significant differences
- effect on root lengths of transgenic lines ([8]; concentration in soil from 0 to 300 μM, compared to WT): increased the roots lengths
- toxicity to merAB-tobacco plants relative to PMA ([8]; supplied at the same concentration): less toxic
